The source of these data is ChEMBL document CHEMBL1201862, “PubChem BioAssay data set” (2004).

In assay [1] the test system is Vero. Nature of the assay: cells. Type of assay: functional. The settings on record: Chlorocebus sabaeus.
The subject of assay [2] is A-375. Nature of the assay: MITF: Counter assay: A375 proliferation Measured in Cell-Based System Using Plate Reader - 2084-03_Inhibitor_Dose_DryPowder_Activity. [Related pubchem assays (depositor defined):AID488944]. In kind it is functional. The settings on record: Homo sapiens.
In assay [3] the test system is A-375. Nature of the assay: A375 melanoma cell viability reduction, dose response, counter-screen for MITF modulator project, cherry-pick samples, set 2 (AID 540335). As to conditions: Homo sapiens. Type of assay: functional, cell-based.
The test system of assay [4] is Vero. Briefly: host cell cytotoxicity of antiviral hits, dose response, cytotoxicity control for West Nile virus antiviral project, secondary assay (AID 1650). In kind it is functional. The settings on record: Chlorocebus sabaeus.
Assay [5] is described as follows: Luminescence Cell-Based Dose Retest to Confirm Inhibitors of Cancer Stem Cells. [Related pubchem assays (depositor defined):AID2717, AID2721]. In kind it is functional. The settings on record: Homo sapiens.
A short description of assay [6]: cytotoxicity in HEK-293T cells, dose response, cytotoxicity control for BCR NF-kB inhibitor project, luminescence, B-cell screen hits (AID 489021).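 Also: HEK-293T cells carrying an NF-kB luciferase reporter; cells exposed to compound for about 14 hours before viability readout.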 Type of assay: functional, cell-based.
The target in assay [7] is Microphthalmia-associated transcription factor (Homo sapiens, UniProt O75030). Nature of the assay: TRPM1 promoter luciferase signal decrease, dose response, MITF inhibitor project, cell-based, SK-MEL-5, cherry-picked, set 3 (AID 493073). Type of assay: functional.
Assay [8] relates to INS1. Nature of the assay: beta cell apoptosis inhibitors, cytokine rescue, dose response, luminescence, retest (AID 449756).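 Also: cell death triggered by IL-1 beta plus TNF-alpha plus IFN-gamma mixture; protective hits raise ATP signal compared with cytokine alone wells.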 Type of assay: functional, cell-based. The settings on record: Rattus norvegicus.
A short description of assay [9]: cytotoxicity in HMLE control line with eGFP shRNA, dose response, counter-screen for HMLE_sh_ECad selective toxicity project, cell-based, HMLE_sh_eGFP, luminescence (AID 463074).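 Also: HMLE human mammary epithelial cells expressing control shRNA against eGFP.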 Type of assay: functional, Homo sapiens.
Assay [10] relates to Vero. Nature of the assay: cells. In kind it is functional, cell-based. As to conditions: Chlorocebus sabaeus.
A short description of assay [11]: Shn3 3'UTR reporter inhibitors, dose response, cell-based, Clone20 osteoblasts, firefly luciferase, cherry-picked (AID 624132).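 Also: firefly luciferase luminescence from reporter carrying the Shn3 3'UTR in osteoblasts.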 Type of assay: functional.
In assay [12] the target is Nucleotide-binding oligomerization domain-containing protein 2 (Homo sapiens, UniProt Q9HC29). Nature of the assay: NOD2 signaling inhibitors, cell-based, luminescence, uHTS, HEK293 (AID 1566). In kind it is functional.
A short description of assay [13]: HepG2 cell cytotoxicity, dose response, cytotoxicity control for Shn3 inhibitor project, CellTiter-Glo, cherry-picked (AID 624134). Type of assay: functional, cell-based.
For assay [14], the target named is Nucleotide-binding oligomerization domain-containing protein 1 (Homo sapiens, UniProt Q9Y239). Nature of the assay: NOD1 signaling inhibitors, SAR follow-up, revised (AID 2333). Type of assay: functional.
In assay [15] the test system is HEK293. Briefly: cells. The settings on record: Homo sapiens.
Assay [16] relates to HEK293. Nature of the assay: NOD1 signaling inhibitors, primary screen, cell-based, luminescence, uHTS (AID 1578). The settings on record: Homo sapiens. Type of assay: functional.
For assay [17], the target named is Paired box protein Pax-8 (Homo sapiens, UniProt Q06710). Briefly: inhibitors of PAX8-driven TPO luciferase reporter, dose response, RMG-I cells, cherry-pick (AID 687027).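 Also: luciferase reporter driven by Pax8 target thyroperoxidase promoter measured by SteadyGlo luminescence.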 Type of assay: functional, cell-based.
The subject of assay [18] is HEK293. Nature of the assay: cells. In kind it is functional, cell-based. The settings on record: Homo sapiens.
In assay [19] the test system is HEK293. Nature of the assay: cells. In kind it is functional, cell-based. The settings on record: Homo sapiens. This is another data set of the same source.
Assay [20] relates to HEK293. Nature of the assay: cells. In kind it is functional, cell-based. The settings on record: Homo sapiens. The source holds these as a separate data set.
In assay [21] the test system is HEK293. Nature of the assay: NOD2 signaling inhibitors in MDP-stimulated cells, cell-based, uHTS, luminescence (AID 2001). In kind it is functional. As to conditions: Homo sapiens.
Assay [22] is described as follows: control 3'UTR Renilla luciferase suppression, dose response, counter-screen for Shn3 inhibitor project, cell-based, Clone20-Shn3RL, cherry-picked (AID 624133). In kind it is functional.
In assay [23] the target is Tumor necrosis factor (Homo sapiens, UniProt P01375). Briefly: TNFa-triggered NF-kB activation inhibitors, SAR follow-up, cell-based, revised (AID 2337). Type of assay: functional.
In assay [24] the target is Keap1/Nrf2 (Homo sapiens, UniProt Q14145). Briefly: Keap1-Nrf2 protein-protein interaction inhibitors, dose response, biochemical, fluorescence polarization, cherry-picked samples (AID 588683).
The target in assay [25] is Genome polyprotein (dengue virus type 2, UniProt P29990). Briefly: Dengue-2 NS5 methyltransferase inhibitors, primary screen, biochemical, confirmation dose response (AID 588689). In kind it is functional.
Assay [26] has as its target Induced myeloid leukemia cell differentiation protein Mcl-1 (Homo sapiens, UniProt Q07820). Type of assay: functional.
Assay [27] deals with T1, Aminopeptidase N (Plasmodium falciparum FcB1/Columbia, UniProt O96935).
T1 sequence (O96935 whole entry): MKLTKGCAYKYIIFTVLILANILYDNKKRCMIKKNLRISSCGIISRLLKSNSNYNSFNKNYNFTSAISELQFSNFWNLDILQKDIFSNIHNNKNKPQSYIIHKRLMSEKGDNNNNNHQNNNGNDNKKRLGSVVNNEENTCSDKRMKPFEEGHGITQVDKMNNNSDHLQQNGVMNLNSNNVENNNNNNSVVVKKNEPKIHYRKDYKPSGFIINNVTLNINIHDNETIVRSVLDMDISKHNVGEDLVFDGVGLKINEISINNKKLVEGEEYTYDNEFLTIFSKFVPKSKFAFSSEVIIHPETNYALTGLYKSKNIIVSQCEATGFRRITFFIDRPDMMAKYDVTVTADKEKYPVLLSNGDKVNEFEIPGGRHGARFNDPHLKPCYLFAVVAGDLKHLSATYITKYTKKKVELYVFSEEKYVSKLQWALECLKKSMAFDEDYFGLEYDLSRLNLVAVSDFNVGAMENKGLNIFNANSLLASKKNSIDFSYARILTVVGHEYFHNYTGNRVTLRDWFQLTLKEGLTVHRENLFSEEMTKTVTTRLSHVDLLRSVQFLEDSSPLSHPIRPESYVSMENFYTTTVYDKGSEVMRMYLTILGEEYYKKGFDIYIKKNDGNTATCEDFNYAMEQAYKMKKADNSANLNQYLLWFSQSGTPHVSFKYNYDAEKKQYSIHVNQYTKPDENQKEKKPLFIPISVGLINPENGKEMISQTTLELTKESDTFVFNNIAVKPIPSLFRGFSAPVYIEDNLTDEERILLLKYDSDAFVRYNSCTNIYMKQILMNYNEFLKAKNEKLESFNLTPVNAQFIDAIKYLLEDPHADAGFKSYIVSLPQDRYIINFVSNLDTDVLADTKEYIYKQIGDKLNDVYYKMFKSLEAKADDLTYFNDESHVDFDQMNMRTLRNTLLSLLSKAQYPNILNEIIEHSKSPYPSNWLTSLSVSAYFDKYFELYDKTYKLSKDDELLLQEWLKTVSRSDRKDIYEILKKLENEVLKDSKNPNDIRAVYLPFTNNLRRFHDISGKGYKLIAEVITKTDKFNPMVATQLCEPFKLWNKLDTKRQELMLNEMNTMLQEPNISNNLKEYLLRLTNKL
Briefly: P. falciparum M1AAP inhibitors, biochemical, fluorogenic H-Leu-NHMec substrate, 1536-well (AID 1445). Details: species or system Plasmodium falciparum 3D7, 3D7.

For assay [28], the system named is Escherichia coli. Nature of the assay: microbe, parasite or virus in culture.
Assay [29] deals with T2, Mannose-6-phosphate isomerase (Homo sapiens, UniProt P34949).
T2 sequence (P34949 whole entry): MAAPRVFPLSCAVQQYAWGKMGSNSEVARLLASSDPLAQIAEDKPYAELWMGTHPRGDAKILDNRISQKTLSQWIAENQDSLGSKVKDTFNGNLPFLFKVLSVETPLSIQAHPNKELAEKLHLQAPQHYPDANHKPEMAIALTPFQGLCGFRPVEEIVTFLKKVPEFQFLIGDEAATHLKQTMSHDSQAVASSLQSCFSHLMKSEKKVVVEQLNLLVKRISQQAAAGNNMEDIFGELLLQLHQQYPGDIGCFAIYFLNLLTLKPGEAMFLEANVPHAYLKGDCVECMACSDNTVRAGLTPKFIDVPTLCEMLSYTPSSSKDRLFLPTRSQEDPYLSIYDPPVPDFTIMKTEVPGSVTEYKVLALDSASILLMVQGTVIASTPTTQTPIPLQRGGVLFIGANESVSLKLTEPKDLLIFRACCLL
Briefly: inhibitors of human PMI, primary screen, biochemical, fluorescence intensity, coupled assay (AID 1209).

Assay [30] deals with DNA dC->dU-editing enzyme APOBEC-3A (Homo sapiens, UniProt P31941). Nature of the assay: APOBEC3A DNA deaminase inhibitors, dose response, biochemical (AID 504722). In kind it is functional.
Assay [31] has as its target DNA dC->dU-editing enzyme APOBEC-3G (Homo sapiens, UniProt Q9HC16). Briefly: Dose Response confirmation of small molecule APOBEC3G DNA Deaminase Inhibitors via a fluorescence-based single-stranded DNA deaminase assay. [Related pubchem assays (depositor defined):AID493012, AID493028]. Type of assay: functional.
The target of assay [32] is T2, Mannose-6-phosphate isomerase. Nature of the assay: PMI enzyme inhibitors, confirmation, biochemical, fluorescence intensity (AID 1535).
The target of assay [33] is Phosphomannomutase 2 (Homo sapiens, UniProt O15305). Nature of the assay: Counter screen SAR assay for PMM2 inhibitors via a fluorescence intensity assay. [Related pubchem assays (depositor defined):AID1545, AID1574].

Active and inactive are the calls of the source.

Tumor necrosis factor, sequence (P01375 whole entry): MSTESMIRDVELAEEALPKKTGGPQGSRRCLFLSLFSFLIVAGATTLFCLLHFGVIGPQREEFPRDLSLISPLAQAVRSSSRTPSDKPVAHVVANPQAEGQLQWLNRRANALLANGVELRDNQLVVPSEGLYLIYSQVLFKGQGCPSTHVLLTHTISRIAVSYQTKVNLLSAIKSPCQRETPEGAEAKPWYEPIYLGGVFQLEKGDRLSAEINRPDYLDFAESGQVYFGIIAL
Keap1/Nrf2, sequence (Q16236 whole entry): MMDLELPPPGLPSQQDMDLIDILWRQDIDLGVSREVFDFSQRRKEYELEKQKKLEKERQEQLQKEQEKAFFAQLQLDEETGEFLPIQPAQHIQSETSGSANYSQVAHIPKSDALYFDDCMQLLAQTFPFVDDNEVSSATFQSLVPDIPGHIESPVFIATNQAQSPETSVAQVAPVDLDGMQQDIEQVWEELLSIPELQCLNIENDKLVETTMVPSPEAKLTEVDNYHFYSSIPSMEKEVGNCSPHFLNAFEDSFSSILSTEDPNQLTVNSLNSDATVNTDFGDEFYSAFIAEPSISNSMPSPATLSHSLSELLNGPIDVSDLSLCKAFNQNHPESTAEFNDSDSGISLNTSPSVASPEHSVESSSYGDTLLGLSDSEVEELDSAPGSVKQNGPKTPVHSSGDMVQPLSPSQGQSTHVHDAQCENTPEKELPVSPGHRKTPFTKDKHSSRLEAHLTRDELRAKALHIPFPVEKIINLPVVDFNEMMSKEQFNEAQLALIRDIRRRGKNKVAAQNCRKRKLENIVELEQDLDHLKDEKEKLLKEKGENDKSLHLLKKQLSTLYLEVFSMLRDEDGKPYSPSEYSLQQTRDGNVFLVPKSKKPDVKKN
Keap1/Nrf2, sequence (Q14145 whole entry): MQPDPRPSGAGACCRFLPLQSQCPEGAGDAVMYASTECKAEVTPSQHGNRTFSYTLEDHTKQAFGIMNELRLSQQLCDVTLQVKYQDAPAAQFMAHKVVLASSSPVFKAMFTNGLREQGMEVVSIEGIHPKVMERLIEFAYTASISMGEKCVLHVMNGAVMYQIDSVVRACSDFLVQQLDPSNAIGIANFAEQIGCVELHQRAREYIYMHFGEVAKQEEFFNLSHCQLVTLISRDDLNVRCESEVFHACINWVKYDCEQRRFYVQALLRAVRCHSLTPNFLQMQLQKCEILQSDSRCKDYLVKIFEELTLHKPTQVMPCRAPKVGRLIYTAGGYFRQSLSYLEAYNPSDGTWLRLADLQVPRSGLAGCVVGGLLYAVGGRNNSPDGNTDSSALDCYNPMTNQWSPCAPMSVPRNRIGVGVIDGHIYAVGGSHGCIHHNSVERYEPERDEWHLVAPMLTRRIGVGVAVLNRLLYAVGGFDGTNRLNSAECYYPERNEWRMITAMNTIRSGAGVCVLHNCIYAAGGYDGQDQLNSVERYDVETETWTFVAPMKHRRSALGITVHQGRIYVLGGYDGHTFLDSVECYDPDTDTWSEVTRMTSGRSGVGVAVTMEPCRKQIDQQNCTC
Phosphomannomutase 2, sequence (O15305 whole entry): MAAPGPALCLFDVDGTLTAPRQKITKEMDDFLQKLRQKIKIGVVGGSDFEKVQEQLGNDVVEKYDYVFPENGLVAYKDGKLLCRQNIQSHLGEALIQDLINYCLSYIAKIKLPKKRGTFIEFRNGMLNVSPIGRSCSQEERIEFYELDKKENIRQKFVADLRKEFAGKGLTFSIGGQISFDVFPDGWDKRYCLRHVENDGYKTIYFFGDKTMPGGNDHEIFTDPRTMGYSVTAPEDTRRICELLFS
Genome polyprotein, sequence (P29990 2492-3391 limits assumed): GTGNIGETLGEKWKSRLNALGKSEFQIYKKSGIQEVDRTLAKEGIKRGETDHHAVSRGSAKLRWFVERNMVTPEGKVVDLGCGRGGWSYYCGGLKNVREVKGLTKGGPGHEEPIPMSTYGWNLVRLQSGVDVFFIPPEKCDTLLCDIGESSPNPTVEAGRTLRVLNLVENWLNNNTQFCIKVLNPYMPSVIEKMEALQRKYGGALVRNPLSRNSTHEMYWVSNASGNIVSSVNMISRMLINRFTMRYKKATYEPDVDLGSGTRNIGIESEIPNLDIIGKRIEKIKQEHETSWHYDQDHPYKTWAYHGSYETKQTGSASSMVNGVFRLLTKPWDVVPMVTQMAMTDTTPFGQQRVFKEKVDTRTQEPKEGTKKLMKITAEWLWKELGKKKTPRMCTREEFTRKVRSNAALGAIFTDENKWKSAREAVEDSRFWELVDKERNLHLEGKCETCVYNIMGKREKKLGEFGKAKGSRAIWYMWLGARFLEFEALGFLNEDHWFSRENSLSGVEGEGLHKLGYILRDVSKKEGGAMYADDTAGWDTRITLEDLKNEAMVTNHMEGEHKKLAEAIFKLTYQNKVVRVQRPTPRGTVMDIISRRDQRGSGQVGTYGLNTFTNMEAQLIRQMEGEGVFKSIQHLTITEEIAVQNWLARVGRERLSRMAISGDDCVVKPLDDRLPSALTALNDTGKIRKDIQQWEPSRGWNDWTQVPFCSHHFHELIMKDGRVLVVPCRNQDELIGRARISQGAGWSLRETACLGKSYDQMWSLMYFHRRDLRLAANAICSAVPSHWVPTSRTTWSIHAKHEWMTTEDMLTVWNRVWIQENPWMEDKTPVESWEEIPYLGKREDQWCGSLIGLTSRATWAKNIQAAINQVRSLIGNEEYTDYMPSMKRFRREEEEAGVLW
Induced myeloid leukemia cell differentiation protein Mcl-1, sequence (Q07820 whole entry): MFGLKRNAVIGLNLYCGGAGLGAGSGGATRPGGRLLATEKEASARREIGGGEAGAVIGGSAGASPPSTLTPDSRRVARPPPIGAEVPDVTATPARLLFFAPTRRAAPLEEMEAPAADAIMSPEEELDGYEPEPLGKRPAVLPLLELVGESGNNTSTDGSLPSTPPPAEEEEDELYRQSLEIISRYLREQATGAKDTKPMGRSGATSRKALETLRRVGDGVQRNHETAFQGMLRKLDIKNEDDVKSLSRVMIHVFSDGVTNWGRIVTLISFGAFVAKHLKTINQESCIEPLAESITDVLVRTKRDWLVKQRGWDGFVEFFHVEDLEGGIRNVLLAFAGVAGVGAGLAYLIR
Nucleotide-binding oligomerization domain-containing protein 2, sequence (Q9HC29 whole entry, the tested form may be a part): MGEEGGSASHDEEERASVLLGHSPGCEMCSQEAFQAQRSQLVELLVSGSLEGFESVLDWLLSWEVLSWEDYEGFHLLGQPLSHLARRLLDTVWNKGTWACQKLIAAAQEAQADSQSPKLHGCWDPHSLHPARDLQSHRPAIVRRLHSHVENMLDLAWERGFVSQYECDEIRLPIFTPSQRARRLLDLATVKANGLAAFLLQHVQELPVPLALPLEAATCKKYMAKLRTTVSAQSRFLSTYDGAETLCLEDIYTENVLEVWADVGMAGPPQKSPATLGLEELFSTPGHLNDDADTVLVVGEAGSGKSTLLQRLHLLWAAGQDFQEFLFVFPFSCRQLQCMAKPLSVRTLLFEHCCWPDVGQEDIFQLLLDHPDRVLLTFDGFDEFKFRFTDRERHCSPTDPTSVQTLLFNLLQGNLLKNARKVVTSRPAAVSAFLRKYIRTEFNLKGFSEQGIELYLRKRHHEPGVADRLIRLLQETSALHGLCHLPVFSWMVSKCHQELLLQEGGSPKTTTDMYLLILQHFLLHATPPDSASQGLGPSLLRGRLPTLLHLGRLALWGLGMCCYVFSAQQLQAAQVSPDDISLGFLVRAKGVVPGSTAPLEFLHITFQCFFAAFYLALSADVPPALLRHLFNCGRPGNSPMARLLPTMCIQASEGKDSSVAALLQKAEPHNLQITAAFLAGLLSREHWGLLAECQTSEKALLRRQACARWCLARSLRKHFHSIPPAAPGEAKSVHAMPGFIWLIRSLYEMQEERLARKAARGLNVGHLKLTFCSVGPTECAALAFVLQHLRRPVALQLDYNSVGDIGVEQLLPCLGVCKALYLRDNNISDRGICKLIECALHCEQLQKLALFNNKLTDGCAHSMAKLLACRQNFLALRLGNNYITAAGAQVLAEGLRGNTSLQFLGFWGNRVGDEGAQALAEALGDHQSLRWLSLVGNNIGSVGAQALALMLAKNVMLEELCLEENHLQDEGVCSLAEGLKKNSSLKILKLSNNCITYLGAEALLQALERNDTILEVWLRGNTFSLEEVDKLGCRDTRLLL
DNA dC->dU-editing enzyme APOBEC-3G, sequence (Q9HC16 whole entry): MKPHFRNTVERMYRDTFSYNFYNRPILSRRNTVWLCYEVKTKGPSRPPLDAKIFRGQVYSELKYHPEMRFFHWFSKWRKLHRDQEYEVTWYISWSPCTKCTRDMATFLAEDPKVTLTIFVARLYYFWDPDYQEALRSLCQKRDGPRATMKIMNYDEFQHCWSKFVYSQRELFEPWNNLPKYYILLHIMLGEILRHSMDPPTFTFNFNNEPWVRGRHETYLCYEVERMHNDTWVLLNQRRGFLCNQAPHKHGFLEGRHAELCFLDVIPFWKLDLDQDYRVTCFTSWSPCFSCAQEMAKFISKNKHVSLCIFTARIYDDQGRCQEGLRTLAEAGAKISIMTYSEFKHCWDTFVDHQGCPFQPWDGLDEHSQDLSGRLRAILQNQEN
DNA dC->dU-editing enzyme APOBEC-3A, sequence (P31941 whole entry): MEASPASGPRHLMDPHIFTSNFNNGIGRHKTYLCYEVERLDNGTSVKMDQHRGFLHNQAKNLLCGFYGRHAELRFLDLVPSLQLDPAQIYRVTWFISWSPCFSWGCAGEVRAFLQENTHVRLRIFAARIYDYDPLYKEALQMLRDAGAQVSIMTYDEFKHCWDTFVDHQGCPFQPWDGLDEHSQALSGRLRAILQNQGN

As to `CCN1CCN(CCCNC(=O)c2ccc3c(Cl)c4c(nc3c2)CCCC4)CC1`, in assay [1], the CC50 is 18.7 µM (active). Also, the concentration at half-maximal activity (AC50) in [2] and in assay [3] was > 11 µM (active) throughout.
As to `Cc1nc2ccccn2c1C(=O)/C=C/c1cccc([N+](=O)[O-])c1`, the half-maximal cytotoxic concentration (CC50) in assay [1] is 24 µM (active); in assay [4], 5.91 µM (active). The AC50 in [2] is > 35 µM (active); in assay [5] it was 26.6 µM (active); in assay [3], > 35 µM (active); in [7], 6.9 µM (active); in assay [8] it was 8.14 µM (active); in assay [9], 56.9 µM (active). The figures for the IC50 in assay [6] and in assay [10] were > 80 µM (inactive) and 17.2 µM (active), respectively.
Turning to `Cc1ccc(S(=O)(=O)NCc2ccc(C(=O)N3CCN(c4ccc([N+](=O)[O-])cc4)CC3)cc2)cc1`, the AC50 in assay [11] is 3.79 µM (active); in [13], 39.8 µM (active); in assay [17] it was 6.91 µM (active); in assay [22], 11.7 µM (active). In addition, the values for the concentration giving a half-maximal response (EC50) in assay [12] and in [16] were 6.65 µM (active) and 4.26 µM (active), respectively. Besides, the 50% inhibitory concentration (IC50) in [14] is 9.8 µM (active); in assay [15] it was > 20 µM (inactive); in [18] it was 4.67 µM (active); in assay [19], 16.2 µM (active); in [20] it was > 20 µM (inactive); in assay [21] it was 7.59 µM (active). For the same compound, the half-maximal inhibitory concentration (IC50) in assay [23] was 11.4 µM (active).
On to `O=C1Nc2ccc(Br)cc2/C1=C1/SC(=S)N(NS(=O)(=O)c2ccccc2)C1=O`, for which, in assay [24], the AC50 was 12.2 µM (active). The figures for the half-maximal inhibitory concentration (IC50) in assay [25], in assay [26] and in [27] were 23.6 µM (active), 3 µM (not active) and < 1 µM (active), respectively.
As to `COC(=O)Nc1ccc2c(c1)N(C(=O)CCN1CCOCC1)c1ccccc1S2`, the concentration at half-maximal activity (AC50) in assay [28] was 50.2 µM (active).
As to `CCOC(=O)C1=C(C)c2ccccc2OC1(C(=O)OCC)C(C)C` (configuration not stated), the AC50 in [28] is 379 µM (active).
In the case of `Cc1ccc(C)n1-c1n[nH]c(=S)[nH]1`, the concentration for half-maximal inhibition (IC50) is 13.7 µM (active) in assay [29]; > 100 µM (inactive) in assay [30]; 6.12 µM (active) in [31]; 41.8 µM (active) in assay [32]; > 100 µM (inactive) in assay [33].
